We go through 18 compounds from patent publication US11174252B2, “Heterocyclic compounds as kinase inhibitors” (priority 2018, dated 2021).

The target of test [1] is FMS kinase (Homo sapiens (Human), UniProt P07333). The test can be described thus: LanthaScreen kinase assay (ATP, fluorescent-PolyGT substrate, TR-FRET). The class given is biochemical. Background: TR-FRET usually uses a lanthanide donor and a delayed reading to cut background.
Test [2] relates to MCF-7. The test can be described thus: Cancer cell proliferation assay, single agent. The class given is cell-based. Conditions: Homo sapiens.
Test [3] has as its system DU4475. The test can be described thus: Cancer cell proliferation assay, single agent. The class given is cell-based. Conditions: Homo sapiens.
Test [4] deals with PI3Kδ kinase (Homo sapiens (Human), UniProt O00329). The test is described as follows: PI3Kδ kinase ADP-Glo assay (Reaction Biology Corporation). In general terms: ADP-Glo turns the ADP formed in a reaction into a luminescent signal.
Sequence of PI3Kδ kinase (O00329 whole entry): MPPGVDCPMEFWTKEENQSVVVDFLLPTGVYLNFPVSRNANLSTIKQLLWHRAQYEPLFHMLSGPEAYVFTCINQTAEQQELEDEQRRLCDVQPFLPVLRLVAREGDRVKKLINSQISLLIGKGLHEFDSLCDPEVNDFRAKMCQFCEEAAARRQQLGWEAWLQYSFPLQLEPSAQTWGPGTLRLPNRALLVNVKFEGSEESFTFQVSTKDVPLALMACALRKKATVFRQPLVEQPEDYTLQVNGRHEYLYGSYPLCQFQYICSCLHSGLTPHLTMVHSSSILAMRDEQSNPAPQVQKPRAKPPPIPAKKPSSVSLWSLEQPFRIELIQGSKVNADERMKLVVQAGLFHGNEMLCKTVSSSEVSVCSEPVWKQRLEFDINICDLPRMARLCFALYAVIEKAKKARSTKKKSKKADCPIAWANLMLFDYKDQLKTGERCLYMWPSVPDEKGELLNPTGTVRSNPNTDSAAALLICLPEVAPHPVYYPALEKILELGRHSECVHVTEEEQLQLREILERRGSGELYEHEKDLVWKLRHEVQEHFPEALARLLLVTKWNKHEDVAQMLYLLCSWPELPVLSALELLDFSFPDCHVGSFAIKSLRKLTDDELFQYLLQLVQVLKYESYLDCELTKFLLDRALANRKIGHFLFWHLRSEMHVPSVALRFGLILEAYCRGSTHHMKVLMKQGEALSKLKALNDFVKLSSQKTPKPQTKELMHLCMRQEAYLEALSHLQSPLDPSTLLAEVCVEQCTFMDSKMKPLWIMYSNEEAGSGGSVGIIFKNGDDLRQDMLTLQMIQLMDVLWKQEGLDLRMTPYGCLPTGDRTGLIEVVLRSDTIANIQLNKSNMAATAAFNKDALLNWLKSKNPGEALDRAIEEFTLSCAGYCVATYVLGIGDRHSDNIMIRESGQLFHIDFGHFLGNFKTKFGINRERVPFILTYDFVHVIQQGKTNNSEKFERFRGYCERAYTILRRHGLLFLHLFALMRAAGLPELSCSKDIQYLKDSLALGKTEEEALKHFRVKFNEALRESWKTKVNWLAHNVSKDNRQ
Sequence of PI3Kδ kinase (P27986 whole entry partner): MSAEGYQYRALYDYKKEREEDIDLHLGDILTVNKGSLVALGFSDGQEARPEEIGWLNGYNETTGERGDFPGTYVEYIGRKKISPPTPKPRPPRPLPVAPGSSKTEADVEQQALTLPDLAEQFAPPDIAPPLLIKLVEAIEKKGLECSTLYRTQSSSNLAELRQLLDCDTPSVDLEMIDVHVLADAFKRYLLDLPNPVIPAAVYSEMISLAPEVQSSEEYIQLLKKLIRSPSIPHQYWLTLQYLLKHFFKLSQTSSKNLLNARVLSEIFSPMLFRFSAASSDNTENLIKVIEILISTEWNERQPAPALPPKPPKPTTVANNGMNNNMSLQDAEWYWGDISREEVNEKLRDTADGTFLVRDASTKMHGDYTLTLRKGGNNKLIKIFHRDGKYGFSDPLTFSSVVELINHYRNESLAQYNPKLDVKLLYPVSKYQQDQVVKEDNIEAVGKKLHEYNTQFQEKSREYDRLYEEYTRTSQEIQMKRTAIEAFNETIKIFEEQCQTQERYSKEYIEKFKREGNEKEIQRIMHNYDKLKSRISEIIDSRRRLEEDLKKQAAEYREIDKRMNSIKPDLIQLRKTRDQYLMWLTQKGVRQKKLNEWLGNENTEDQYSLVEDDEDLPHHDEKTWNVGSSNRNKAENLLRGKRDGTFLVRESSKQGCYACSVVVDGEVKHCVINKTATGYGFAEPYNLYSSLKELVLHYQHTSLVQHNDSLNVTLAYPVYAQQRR
The target of test [5] is CDK4 (Homo sapiens (Human), UniProt P11802). The test is described as follows: In vitro kinase inhibition, luminescence (ADP-Glo) with retinoblastoma substrate. The class given is biochemical.
Sequence of CDK4 (P11802 whole entry): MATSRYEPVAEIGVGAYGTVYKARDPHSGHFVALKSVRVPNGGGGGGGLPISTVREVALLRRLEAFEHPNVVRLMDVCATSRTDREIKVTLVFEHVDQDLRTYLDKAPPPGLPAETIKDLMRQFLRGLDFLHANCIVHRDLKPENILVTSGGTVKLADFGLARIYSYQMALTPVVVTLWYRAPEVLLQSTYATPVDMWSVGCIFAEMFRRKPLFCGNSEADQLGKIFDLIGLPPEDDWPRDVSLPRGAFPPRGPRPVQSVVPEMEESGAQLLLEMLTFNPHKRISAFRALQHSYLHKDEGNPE
Sequence of CDK4 (P24385 whole entry partner): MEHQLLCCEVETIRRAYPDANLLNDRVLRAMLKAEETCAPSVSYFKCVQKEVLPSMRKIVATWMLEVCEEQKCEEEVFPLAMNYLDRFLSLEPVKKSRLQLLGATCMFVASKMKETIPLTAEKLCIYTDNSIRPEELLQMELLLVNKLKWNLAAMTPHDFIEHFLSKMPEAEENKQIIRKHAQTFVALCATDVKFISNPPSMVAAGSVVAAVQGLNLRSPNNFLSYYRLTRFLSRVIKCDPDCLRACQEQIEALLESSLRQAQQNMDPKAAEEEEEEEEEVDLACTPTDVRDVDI
Test [6] addresses CDK6 (Homo sapiens (Human), UniProt Q00534). The test is described as follows: biochemical. The class given is biochemical.
For test [7], the target named is CDK1 (cyclin B) (Homo sapiens (Human), UniProt P06493). The test can be described thus: Z'-LYTE kinase assay. It is filed as biochemical. From the text:
The following equations were used for Z′-LYTE™ Screening Assay Data Analysis.

[8] abbreviates: MCF7, MCF-7 cells, treated for 24-168 hours, read-out: IC50 (nM) MCF-7.
Where [9] appears, read: DU-4475, read-out: IC50 (nM) DU4475.
Where [10] appears, read: DU-4475, DU4475 cells, treated for 24-168 hours, read-out: IC50 (nM) DU4475.
Where [11] appears, read: MCF7, read-out: IC50 (nM) MCF-7.

Each structure is given as a SMILES string. Read-outs that look alike come from different tables or passages of the source.

Sequence of FMS kinase (P07333 20-972): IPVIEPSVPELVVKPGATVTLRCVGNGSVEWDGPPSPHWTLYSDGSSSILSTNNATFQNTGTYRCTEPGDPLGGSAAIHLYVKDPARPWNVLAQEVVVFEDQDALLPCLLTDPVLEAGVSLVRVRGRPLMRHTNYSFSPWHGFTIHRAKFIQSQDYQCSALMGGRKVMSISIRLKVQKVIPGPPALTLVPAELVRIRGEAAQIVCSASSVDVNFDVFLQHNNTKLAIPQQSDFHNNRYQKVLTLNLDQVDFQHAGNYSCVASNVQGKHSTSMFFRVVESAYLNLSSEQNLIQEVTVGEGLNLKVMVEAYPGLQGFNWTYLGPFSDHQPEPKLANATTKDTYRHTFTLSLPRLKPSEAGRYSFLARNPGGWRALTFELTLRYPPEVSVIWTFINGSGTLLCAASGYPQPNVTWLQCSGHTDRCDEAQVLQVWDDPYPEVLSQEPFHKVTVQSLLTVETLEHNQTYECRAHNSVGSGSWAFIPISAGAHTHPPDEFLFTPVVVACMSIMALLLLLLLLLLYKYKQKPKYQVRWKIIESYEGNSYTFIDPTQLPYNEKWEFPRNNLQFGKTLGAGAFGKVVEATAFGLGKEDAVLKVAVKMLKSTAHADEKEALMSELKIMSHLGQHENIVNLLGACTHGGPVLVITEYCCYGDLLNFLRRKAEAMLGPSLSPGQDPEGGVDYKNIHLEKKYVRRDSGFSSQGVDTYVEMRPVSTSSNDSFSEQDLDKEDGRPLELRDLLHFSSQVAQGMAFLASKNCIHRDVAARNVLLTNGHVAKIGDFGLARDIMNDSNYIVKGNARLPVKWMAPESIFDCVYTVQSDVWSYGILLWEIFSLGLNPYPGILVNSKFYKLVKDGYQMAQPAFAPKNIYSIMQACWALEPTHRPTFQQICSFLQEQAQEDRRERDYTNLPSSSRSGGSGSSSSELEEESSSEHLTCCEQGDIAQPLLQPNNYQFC
Sequence of CDK1 (cyclin B) (P06493 whole entry): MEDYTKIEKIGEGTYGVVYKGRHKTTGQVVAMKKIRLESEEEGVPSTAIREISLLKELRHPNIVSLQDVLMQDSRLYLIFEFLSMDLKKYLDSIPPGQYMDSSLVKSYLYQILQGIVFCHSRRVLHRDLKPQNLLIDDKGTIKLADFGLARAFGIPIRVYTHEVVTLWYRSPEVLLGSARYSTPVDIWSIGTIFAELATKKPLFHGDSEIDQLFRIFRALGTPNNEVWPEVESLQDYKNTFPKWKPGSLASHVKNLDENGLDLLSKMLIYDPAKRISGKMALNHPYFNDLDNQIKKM
Sequence of CDK1 (cyclin B) (P14635 whole entry partner): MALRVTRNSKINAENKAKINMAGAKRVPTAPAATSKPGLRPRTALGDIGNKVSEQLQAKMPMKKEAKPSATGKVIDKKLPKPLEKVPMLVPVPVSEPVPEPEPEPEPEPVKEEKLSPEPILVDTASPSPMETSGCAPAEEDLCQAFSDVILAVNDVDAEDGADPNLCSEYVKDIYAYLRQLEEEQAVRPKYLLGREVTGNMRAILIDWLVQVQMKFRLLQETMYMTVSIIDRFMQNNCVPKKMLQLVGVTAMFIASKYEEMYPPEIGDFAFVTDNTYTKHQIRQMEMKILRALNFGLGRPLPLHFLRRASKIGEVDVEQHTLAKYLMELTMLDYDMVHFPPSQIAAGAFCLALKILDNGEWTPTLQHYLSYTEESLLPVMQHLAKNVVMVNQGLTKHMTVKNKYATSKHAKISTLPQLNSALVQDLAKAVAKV

In general, IC50 refers to the concentration at which inhibition is half-maximal. With `CC(C)N1CCOc2c(F)cc(-c3nc(Nc4ccc(N5CCN(CCO)CC5)cn4)ncc3F)cc21` [Compound 490, 2-(4-(6-((5-fluoro-4-(8-fluoro-4-isopropyl-3,4-dihydro-2H-benzo[b][1,4]oxazin-6-yl)pyrimidin-2-yl)amino)pyridin-3-yl)piperazin-1-yl)ethan-1-ol], the 50% inhibitory concentration (IC50) in test [1] was 2.12 µM; in test [2] (setting [8]) it was 80 nM; in test [3] (setting [9]) it was 420 nM; in test [4] (read-out: PI3Kδ IC50), greater than 50 µM.

As for `CC(C)CN1CCOc2c(F)cc(-c3nc(Nc4ccc(N5CCOCC5)cn4)ncc3F)cc21` [Compound 489, 5-fluoro-4-(8-fluoro-4-isobutyl-3,4-dihydro-2H-benzo[b][1,4]oxazin-6-yl)-N-(5-morpholinopyridin-2-yl)pyrimidin-2-amine], the 50% inhibitory concentration (IC50) in test [5] was 0.09 µM; in test [6], 0.159 µM; in test [1] it was greater than 5 µM; in test [2] (setting [8]), 1820 nM; in test [3] (setting [9]), 4500 nM; in test [4] (read-out: PI3Kδ IC50), greater than 50 µM.

Consider `CC(=O)N1CCN(c2ccc(Nc3ncc(F)c(-c4cc(F)c5c(c4)N(C(C)C)CCO5)n3)nc2)CC1` [Compound 474, 1-(4-(6-((5-fluoro-4-(8-fluoro-4-isopropyl-3,4-dihydro-2H-benzo[b][1,4]oxazin-6-yl)pyrimidin-2-yl)amino)pyridin-3-yl)piperazin-1-yl)ethan-1-one], for which the half-inhibitory concentration (IC50) in test [1] is 0.776 µM; in test [2] (setting [8]), 300 nM; in test [3] (setting [10]) it was 940 nM; in test [4] (read-out: PI3Kδ IC50), 1.16 µM.

In the case of `CN1CCC(c2ccc(Nc3ncc(F)c(-c4cc(F)c5c(c4)N(C4CCCC4)CCO5)n3)cc2F)CC1` [Compound 471, 4-(4-cyclopentyl-8-fluoro-3,4-dihydro-2H-benzo[b][1,4]oxazin-6-yl)-5-fluoro-N-(3-fluoro-4-(1-methylpiperidin-4-yl)phenyl)pyrimidin-2-amine], the half-maximal inhibitory concentration (IC50) in test [5] is 0.01 µM; in test [6], 0.053 µM; in test [1] it was 0.454 µM; in test [2] (setting [11]) it was 45 nM; in test [3] (setting [9]), 110 nM; in test [4] (read-out: PI3Kδ IC50) it was 1.99 µM.

`Fc1cnc(Nc2ccc(N3CCOCC3)cn2)nc1-c1cc(F)c2c(c1)N(C1CCC1)CCO2` [Compound 487, 4-(4-cyclobutyl-8-fluoro-3,4-dihydro-2H-benzo[b][1,4]oxazin-6-yl)-5-fluoro-N-(5-morpholinopyridin-2-yl)pyrimidin-2-amine]: the half-maximal inhibitory concentration (IC50) is 0.055 µM in test [5]; 0.112 µM in test [6]; greater than 5 µM in test [1]; 615 nM in test [2] (setting [11]); 2170 nM in test [3] (setting [9]); greater than 50 µM in test [4] (read-out: PI3Kδ IC50).

Take `CC(C)CN1CCOc2c(F)cc(-c3nc(Nc4ccc(N5CCC(N(C)C)CC5)c(F)c4)ncc3F)cc21` [Compound 480, N-(4-(4-(dimethylamino)piperidin-1-yl)-3-fluorophenyl)-5-fluoro-4-(8-fluoro-4-isobutyl-3,4-dihydro-2H-benzo[b][1,4]oxazin-6-yl)pyrimidin-2-amine]: the 50% inhibitory concentration (IC50) in test [5] worked out at 0.0055 µM; in test [6], 0.014 µM; in test [1], 0.082 µM; in test [2] (setting [11]), 190 nM; in test [3] (setting [9]), 435 nM; in test [4] (read-out: PI3Kδ IC50), 1.16 µM.

Take `CC(C)CN1CCOc2c(F)cc(-c3nc(Nc4ccc(C5CCN(C)CC5)c(F)c4)ncc3F)cc21` [Compound 476, 5-fluoro-N-(3-fluoro-4-(1-methylpiperidin-4-yl)phenyl)-4-(8-fluoro-4-isobutyl-3,4-dihydro-2H-benzo[b][1,4]oxazin-6-yl)pyrimidin-2-amine]: the IC50 in test [5] was 0.004 µM; in test [6], 0.025 µM; in test [1] it was 0.174 µM; in test [2] (setting [8]), 65 nM; in test [3] (setting [9]), 135 nM; in test [4] (read-out: PI3Kδ IC50), 0.703 µM.

With `CC(C)N1CCOc2c(F)cc(-c3nc(Nc4ccc(N5CCC(C)(O)CC5)cn4)ncc3F)cc21` [Compound 484, 1-(6-((5-fluoro-4-(8-fluoro-4-isopropyl-3,4-dihydro-2H-benzo[b][1,4]oxazin-6-yl)pyrimidin-2-yl)amino)pyridin-3-yl)-4-methylpiperidin-4-ol], the concentration for half-maximal inhibition (IC50) in test [1] was greater than 5 µM; in test [2] (setting [8]), 1340 nM; in test [3] (setting [10]) it was 2480 nM; in test [4] (read-out: PI3Kδ IC50), greater than 50 µM.

Take `CC(C)N1CCOc2c(F)cc(-c3nc(Nc4ccc(N5CCC(CCO)CC5)cn4)ncc3F)cc21` [Compound 491, 2-(1-(6-((5-fluoro-4-(8-fluoro-4-isopropyl-3,4-dihydro-2H-benzo[b][1,4]oxazin-6-yl)pyrimidin-2-yl)amino)pyridin-3-yl)piperidin-4-yl)ethan-1-ol]: the IC50 in test [1] was 4.59 µM; in test [2] (setting [8]) it was 465 nM; in test [3] (setting [10]) it was 450 nM; in test [4] (read-out: PI3Kδ IC50) it was greater than 50 µM.

As for `CC(C)N1CCOc2c(F)cc(-c3nc(Nc4ccc(N5CCC(CO)CC5)cn4)ncc3F)cc21` [Compound 485, (1-(6-((5-fluoro-4-(8-fluoro-4-isopropyl-3,4-dihydro-2H-benzo[b][1,4]oxazin-6-yl)pyrimidin-2-yl)amino)pyridin-3-yl)piperidin-4-yl)methanol], the IC50 in test [1] was 3.25 µM; in test [2] (setting [8]), 470 nM; in test [3] (setting [10]), 555 nM; in test [4] (read-out: PI3Kδ IC50), greater than 50 µM.

Consider `CC(C)CN1CCOc2c(F)cc(-c3nc(Nc4ccc(N5CCC(O)CC5)cn4)ncc3F)cc21` [Compound 488, 1-(6-((5-fluoro-4-(8-fluoro-4-isobutyl-3,4-dihydro-2H-benzo[b][1,4]oxazin-6-yl)pyrimidin-2-yl)amino)pyridin-3-yl)piperidin-4-ol], for which the concentration for half-maximal inhibition (IC50) in test [5] is 0.101 µM; in test [6], 0.2 µM; in test [1], greater than 5 µM; in test [2] (setting [11]), 830 nM; in test [3] (setting [9]) it was 2560 nM; in test [4] (read-out: PI3Kδ IC50) it was greater than 50 µM.

On to `CC(C)N1CCOc2c(F)cc(-c3nc(Nc4cnn(C5CCN(C)CC5)c4)ncc3F)cc21` [Compound 497, 5-fluoro-4-(8-fluoro-4-isopropyl-3,4-dihydro-2H-benzo[b][1,4]oxazin-6-yl)-N-(1-(1-methylpiperidin-4-yl)-1H-pyrazol-4-yl)pyrimidin-2-amine], for which the half-maximal inhibitory concentration (IC50) in test [7] turned out to be 0.085 µM; in test [2] (setting [11]), 40 nM; in test [3] (setting [9]), 95 nM.

Take `CC(C)N1CCOc2c(F)cc(-c3nc(Nc4ccc(N5CCN6CCCC6C5)c(F)c4)ncc3F)cc21` (stereo not shown) [Compound 473, 5-fluoro-N-(3-fluoro-4-(hexahydropyrrolo[1,2-a]pyrazin-2(1H)-yl)phenyl)-4-(8-fluoro-4-isopropyl-3,4-dihydro-2H-benzo[b][1,4]oxazin-6-yl)pyrimidin-2-amine]: the concentration for half-maximal inhibition (IC50) came out at 0.007 µM in test [1], 30 nM in test [2] (setting [8]), 55 nM in test [3] (setting [10]) and 3.17 µM in test [4] (read-out: PI3Kδ IC50).

With `OC1CCN(c2ccc(Nc3ncc(F)c(-c4cc(F)c5c(c4)N(C4CCC4)CCO5)n3)nc2)CC1` [Compound 486, 1-(6-((4-(4-cyclobutyl-8-fluoro-3,4-dihydro-2H-benzo[b][1,4]oxazin-6-yl)-5-fluoropyrimidin-2-yl)amino)pyridin-3-yl)piperidin-4-ol], the IC50 is 0.016 µM in test [5]; 0.041 µM in test [6]; greater than 5 µM in test [1]; 325 nM in test [2] (setting [11]); 1450 nM in test [3] (setting [9]); greater than 50 µM in test [4] (read-out: PI3Kδ IC50).

Turning to `CC(C)N1CCOc2c(F)cc(-c3nc(Nc4ccc(N5CCC(O)CC5)c(F)c4)ncc3F)cc21` [Compound 445, 1-(2-fluoro-4-((5-fluoro-4-(8-fluoro-4-isopropyl-3,4-dihydro-2H-benzo[b][1,4]oxazin-6-yl)pyrimidin-2-yl)amino)phenyl)piperidin-4-ol], the IC50 is 0.031 µM in test [5]; 0.069 µM in test [6]; 0.069 µM in test [1]; 120 nM in test [2] (setting [8]); greater than 50 µM in test [4] (read-out: PI3Kδ IC50).

`CC(C)N1CCOc2c(F)cc(-c3nc(Nc4ccc(C5CCN(C(=O)N(C)C)CC5)cn4)ncc3F)cc21` [Compound 454, 4-(6-((5-fluoro-4-(8-fluoro-4-isopropyl-3,4-dihydro-2H-benzo[b][1,4]oxazin-6-yl)pyrimidin-2-yl)amino)pyridin-3-yl)-N,N-dimethylpiperidine-1-carboxamide]: the IC50 in test [5] was 0.018 µM; in test [6], 0.083 µM; in test [1] it was greater than 5 µM; in test [2] (setting [8]) it was 920 nM; in test [4] (read-out: PI3Kδ IC50), greater than 50 µM.

For the compound `CC(C)N1CCOc2c(F)cc(-c3nc(Nc4ccc(N5CCN(C)CC5=O)cn4)ncc3F)cc21` [Compound 472, 1-(6-((5-fluoro-4-(8-fluoro-4-isopropyl-3,4-dihydro-2H-benzo[b][1,4]oxazin-6-yl)pyrimidin-2-yl)amino)pyridin-3-yl)-4-methylpiperazin-2-one], the IC50 was determined as 0.0025 µM in test [5], 30 nM in test [2] (setting [11]), 570 nM in test [3] (setting [9]) and 29.1 µM in test [4].

For `CC(C)N1CCOc2c(F)cc(-c3nc(Nc4ccc(N5CCN(C(=O)CN(C)C)CC5)c(F)c4)ncc3F)cc21` [Compound 449, 2-(dimethylamino)-1-(4-(2-fluoro-4-((5-fluoro-4-(8-fluoro-4-isopropyl-3,4-dihydro-2H-benzo[b][1,4]oxazin-6-yl)pyrimidin-2-yl)amino)phenyl)piperazin-1-yl)ethan-1-one], the IC50 in test [5] was 0.0011 µM; in test [6] it was 0.0009 µM; in test [1], 0.0095 µM; in test [2] (setting [8]), 50 nM; in test [4] (read-out: PI3Kδ IC50), 4.49 µM.
